Numbers after ± are expanded uncertainties.
Assay: xn = mol fraction of the nth substance listed
Details: 101 kPa, Liquid

CC1COC(=O)O1 (configuration not stated) [4-methyl-1,3-dioxolan-2-one] + Cc1ccc(C)cc1
Details | mass density [kg/m3]
293.15 K, x2 = 0 | 1200.25 ± 40
293.15 K, x2 = 0.0487 | 1177.59 ± 40
293.15 K, x2 = 0.1238 | 1144.26 ± 40
293.15 K, x2 = 0.1793 | 1120.81 ± 40
293.15 K, x2 = 0.2482 | 1093.01 ± 40
293.15 K, x2 = 0.3125 | 1068.33 ± 40
293.15 K, x2 = 0.381 | 1043.26 ± 40
293.15 K, x2 = 0.4371 | 1023.64 ± 40
293.15 K, x2 = 0.4972 | 1003.44 ± 40
293.15 K, x2 = 0.5622 | 982.49 ± 40
293.15 K, x2 = 0.6329 | 960.71 ± 40
293.15 K, x2 = 0.6938 | 942.7 ± 40
293.15 K, x2 = 0.7421 | 928.88 ± 40
293.15 K, x2 = 0.8023 | 912.2 ± 40
293.15 K, x2 = 0.8592 | 896.93 ± 40
293.15 K, x2 = 0.9247 | 879.91 ± 40
303.15 K, x2 = 0 | 1180.56 ± 40
303.15 K, x2 = 0.0523 | 1157.1 ± 40
303.15 K, x2 = 0.123 | 1126.84 ± 40
303.15 K, x2 = 0.1836 | 1102.14 ± 40
303.15 K, x2 = 0.2381 | 1080.85 ± 40
303.15 K, x2 = 0.3263 | 1048.15 ± 40
303.15 K, x2 = 0.3741 | 1031.29 ± 40
303.15 K, x2 = 0.4233 | 1014.5 ± 40
303.15 K, x2 = 0.4794 | 996.06 ± 40
303.15 K, x2 = 0.5573 | 971.57 ± 40
303.15 K, x2 = 0.6233 | 951.77 ± 40
303.15 K, x2 = 0.6843 | 934.2 ± 40
303.15 K, x2 = 0.7538 | 914.94 ± 40
303.15 K, x2 = 0.8148 | 898.66 ± 40
303.15 K, x2 = 0.8731 | 883.59 ± 40
303.15 K, x2 = 0.9362 | 867.79 ± 40
313.15 K, x2 = 0 | 1161.28 ± 40
313.15 K, x2 = 0.0543 | 1137.8 ± 40
313.15 K, x2 = 0.1173 | 1111.72 ± 40
313.15 K, x2 = 0.1598 | 1094.8 ± 40
313.15 K, x2 = 0.2294 | 1068.21 ± 40
313.15 K, x2 = 0.2849 | 1047.95 ± 40
313.15 K, x2 = 0.3598 | 1021.87 ± 40
313.15 K, x2 = 0.4381 | 996.03 ± 40
313.15 K, x2 = 0.482 | 982.14 ± 40
313.15 K, x2 = 0.5359 | 965.64 ± 40
313.15 K, x2 = 0.6021 | 946.14 ± 40
313.15 K, x2 = 0.6721 | 926.39 ± 40
313.15 K, x2 = 0.7359 | 909.11 ± 40
313.15 K, x2 = 0.8243 | 886.17 ± 40
313.15 K, x2 = 0.8817 | 871.85 ± 40
313.15 K, x2 = 0.9274 | 860.74 ± 40
323.15 K, x2 = 0 | 1142.43 ± 40
323.15 K, x2 = 0.0623 | 1116.49 ± 40
323.15 K, x2 = 0.1246 | 1091.71 ± 40
323.15 K, x2 = 0.1822 | 1069.79 ± 40
323.15 K, x2 = 0.2483 | 1045.74 ± 40
323.15 K, x2 = 0.3193 | 1021.16 ± 40
323.15 K, x2 = 0.3719 | 1003.72 ± 40
323.15 K, x2 = 0.4389 | 982.42 ± 40
323.15 K, x2 = 0.5032 | 962.87 ± 40
323.15 K, x2 = 0.5579 | 946.88 ± 40
323.15 K, x2 = 0.6234 | 928.45 ± 40
323.15 K, x2 = 0.6972 | 908.56 ± 40
323.15 K, x2 = 0.7529 | 894.11 ± 40
323.15 K, x2 = 0.8137 | 878.84 ± 40
323.15 K, x2 = 0.8724 | 864.57 ± 40
323.15 K, x2 = 0.9378 | 849.15 ± 40
333.15 K, x2 = 0 | 1123.99 ± 40
333.15 K, x2 = 0.0598 | 1099.91 ± 40
333.15 K, x2 = 0.1387 | 1069.71 ± 40
333.15 K, x2 = 0.1738 | 1056.82 ± 40
333.15 K, x2 = 0.2384 | 1033.93 ± 40
333.15 K, x2 = 0.3283 | 1003.8 ± 40
333.15 K, x2 = 0.3918 | 983.64 ± 40
333.15 K, x2 = 0.452 | 965.32 ± 40
333.15 K, x2 = 0.5138 | 947.26 ± 40
333.15 K, x2 = 0.5821 | 928.14 ± 40
333.15 K, x2 = 0.6518 | 909.44 ± 40
333.15 K, x2 = 0.7139 | 893.44 ± 40
333.15 K, x2 = 0.783 | 876.29 ± 40
333.15 K, x2 = 0.8346 | 863.9 ± 40
333.15 K, x2 = 0.8814 | 852.95 ± 40
333.15 K, x2 = 0.9471 | 837.99 ± 40
343.15 K, x2 = 0 | 1105.98 ± 40
343.15 K, x2 = 0.0643 | 1081 ± 40
343.15 K, x2 = 0.1241 | 1058.78 ± 40
343.15 K, x2 = 0.1839 | 1037.51 ± 40
343.15 K, x2 = 0.245 | 1016.69 ± 40
343.15 K, x2 = 0.3183 | 992.89 ± 40
343.15 K, x2 = 0.3891 | 971.03 ± 40
343.15 K, x2 = 0.4498 | 953.11 ± 40
343.15 K, x2 = 0.5021 | 938.24 ± 40
343.15 K, x2 = 0.5721 | 919.11 ± 40
343.15 K, x2 = 0.6592 | 896.46 ± 40
343.15 K, x2 = 0.7134 | 882.94 ± 40
343.15 K, x2 = 0.7635 | 870.82 ± 40
343.15 K, x2 = 0.8247 | 856.45 ± 40
343.15 K, x2 = 0.8848 | 842.78 ± 40
343.15 K, x2 = 0.9522 | 827.92 ± 40
353.15 K, x2 = 0 | 1088.38 ± 40
353.15 K, x2 = 0.0505 | 1069.32 ± 40
353.15 K, x2 = 0.1184 | 1044.77 ± 40
353.15 K, x2 = 0.1739 | 1025.56 ± 40
353.15 K, x2 = 0.2289 | 1007.26 ± 40
353.15 K, x2 = 0.2847 | 989.41 ± 40
353.15 K, x2 = 0.3571 | 967.26 ± 40
353.15 K, x2 = 0.4248 | 947.53 ± 40
353.15 K, x2 = 0.4972 | 927.39 ± 40
353.15 K, x2 = 0.5539 | 912.26 ± 40
353.15 K, x2 = 0.6198 | 895.34 ± 40
353.15 K, x2 = 0.674 | 881.93 ± 40
353.15 K, x2 = 0.7354 | 867.23 ± 40
353.15 K, x2 = 0.7842 | 855.91 ± 40
353.15 K, x2 = 0.8527 | 840.5 ± 40
353.15 K, x2 = 0.9247 | 824.87 ± 40

— the NIST ThermoML archive (doi:10.1016/j.jct.2005.01.017)
